Source: patent US20230139171A1 (SITA Information Networking Computing UK Limited, priority 2019, published 2023)

Assays:
Assay type in all cases: cell-based
human TLR8 = molecular target: T1, human TLR8 (Homo sapiens, UniProt Q9NR97); test: TLR8 inhibition reporter assay (HEK-Blue cells, SEAP reporter, R848 stimulation); details: HEK-Blue cells overexpressing human TLR8, SEAP reporter, R848 15.9 μM; read-out: TLR8 IC50
T1 construct: host or cells: HEK-Blue cells
T1 sequence (Q9NR97 27-1041): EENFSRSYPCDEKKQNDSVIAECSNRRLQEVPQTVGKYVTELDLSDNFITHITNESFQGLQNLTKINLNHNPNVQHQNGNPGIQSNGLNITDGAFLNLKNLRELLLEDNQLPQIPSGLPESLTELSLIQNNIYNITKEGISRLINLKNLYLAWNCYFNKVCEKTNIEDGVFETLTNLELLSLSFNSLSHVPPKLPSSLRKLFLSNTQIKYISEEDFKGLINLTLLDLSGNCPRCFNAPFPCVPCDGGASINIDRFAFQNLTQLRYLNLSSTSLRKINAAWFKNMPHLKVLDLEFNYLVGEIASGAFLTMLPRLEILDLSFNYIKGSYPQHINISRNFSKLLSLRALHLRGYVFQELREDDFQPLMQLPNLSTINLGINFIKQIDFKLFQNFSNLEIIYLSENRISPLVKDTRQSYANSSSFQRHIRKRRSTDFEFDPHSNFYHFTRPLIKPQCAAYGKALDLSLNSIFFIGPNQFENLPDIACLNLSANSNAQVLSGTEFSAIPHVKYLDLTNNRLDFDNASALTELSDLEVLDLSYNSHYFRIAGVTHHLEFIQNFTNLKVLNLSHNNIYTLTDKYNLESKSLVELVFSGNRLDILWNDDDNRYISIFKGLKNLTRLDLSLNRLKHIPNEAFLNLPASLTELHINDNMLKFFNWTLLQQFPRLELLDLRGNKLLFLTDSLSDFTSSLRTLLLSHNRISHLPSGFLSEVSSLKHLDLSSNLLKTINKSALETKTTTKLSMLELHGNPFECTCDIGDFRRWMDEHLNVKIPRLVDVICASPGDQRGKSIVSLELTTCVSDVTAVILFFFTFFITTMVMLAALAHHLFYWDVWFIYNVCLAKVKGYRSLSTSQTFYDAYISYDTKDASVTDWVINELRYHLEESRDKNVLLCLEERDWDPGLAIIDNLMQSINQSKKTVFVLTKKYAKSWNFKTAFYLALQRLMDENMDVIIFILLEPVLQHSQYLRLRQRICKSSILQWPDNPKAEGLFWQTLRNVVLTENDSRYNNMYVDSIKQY
Method in brief: (§1)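 Agonists used: gardiquimod 7.5 μM (TLR7), R848 15.9 μM (TLR8), ODN2006 5 nM (TLR9), added after 30 min room-temperature compound pre-treatment (0.05 nM–50 μM) of receptor-overexpressing HEK-Blue cells. SEAP reporter (NF-κB/AP-1 driven) read after 22 h at 37 °C; inhibition scaled between agonist+DMSO and reference-inhibitor wells.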

human TLR7 = molecular target: T2, human TLR7 (Homo sapiens, UniProt Q9NYK1); test: TLR7 inhibition reporter assay (HEK-Blue cells, SEAP reporter, gardiquimod stimulation); details: HEK-Blue cells overexpressing human TLR7, SEAP reporter, gardiquimod 7.5 μM; read-out: TLR7 IC50
T2 construct: host or cells: HEK-Blue cells
T2 sequence (Q9NYK1 27-1049): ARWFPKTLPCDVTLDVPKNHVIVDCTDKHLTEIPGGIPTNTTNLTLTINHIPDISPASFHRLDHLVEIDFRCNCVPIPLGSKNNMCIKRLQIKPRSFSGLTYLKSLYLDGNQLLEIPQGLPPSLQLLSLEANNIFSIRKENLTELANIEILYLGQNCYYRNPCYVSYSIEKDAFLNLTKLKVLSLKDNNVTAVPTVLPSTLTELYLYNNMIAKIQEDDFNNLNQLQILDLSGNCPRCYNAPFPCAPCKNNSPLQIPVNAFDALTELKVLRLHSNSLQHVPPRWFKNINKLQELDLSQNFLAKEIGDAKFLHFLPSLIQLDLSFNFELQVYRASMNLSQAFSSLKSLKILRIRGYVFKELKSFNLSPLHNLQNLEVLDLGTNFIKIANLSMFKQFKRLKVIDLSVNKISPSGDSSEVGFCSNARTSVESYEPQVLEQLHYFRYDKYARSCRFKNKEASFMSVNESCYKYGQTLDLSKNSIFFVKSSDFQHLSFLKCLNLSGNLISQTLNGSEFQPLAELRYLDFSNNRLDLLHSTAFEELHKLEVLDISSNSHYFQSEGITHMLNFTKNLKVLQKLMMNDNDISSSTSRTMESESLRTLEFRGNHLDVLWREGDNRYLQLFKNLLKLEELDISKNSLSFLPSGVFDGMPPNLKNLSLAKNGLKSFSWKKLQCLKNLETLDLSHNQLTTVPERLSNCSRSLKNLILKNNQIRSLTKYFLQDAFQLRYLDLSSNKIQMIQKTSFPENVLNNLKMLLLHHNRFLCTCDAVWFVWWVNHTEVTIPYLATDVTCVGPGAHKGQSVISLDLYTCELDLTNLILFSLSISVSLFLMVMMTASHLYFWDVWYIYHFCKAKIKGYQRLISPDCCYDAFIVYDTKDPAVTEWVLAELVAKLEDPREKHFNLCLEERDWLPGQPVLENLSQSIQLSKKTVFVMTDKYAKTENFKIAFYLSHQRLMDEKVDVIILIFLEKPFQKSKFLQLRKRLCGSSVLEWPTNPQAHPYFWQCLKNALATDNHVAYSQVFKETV
Method in brief: as §1

human TLR9 = molecular target: T3, human TLR9 (Homo sapiens, UniProt Q9NR96); test: TLR9 inhibition reporter assay (HEK-Blue cells, SEAP reporter, ODN2006 stimulation); details: HEK-Blue cells overexpressing human TLR9, SEAP reporter, ODN2006 5 nM
T3 construct: host or cells: HEK-Blue cells
T3 sequence (Q9NR96 26-1032): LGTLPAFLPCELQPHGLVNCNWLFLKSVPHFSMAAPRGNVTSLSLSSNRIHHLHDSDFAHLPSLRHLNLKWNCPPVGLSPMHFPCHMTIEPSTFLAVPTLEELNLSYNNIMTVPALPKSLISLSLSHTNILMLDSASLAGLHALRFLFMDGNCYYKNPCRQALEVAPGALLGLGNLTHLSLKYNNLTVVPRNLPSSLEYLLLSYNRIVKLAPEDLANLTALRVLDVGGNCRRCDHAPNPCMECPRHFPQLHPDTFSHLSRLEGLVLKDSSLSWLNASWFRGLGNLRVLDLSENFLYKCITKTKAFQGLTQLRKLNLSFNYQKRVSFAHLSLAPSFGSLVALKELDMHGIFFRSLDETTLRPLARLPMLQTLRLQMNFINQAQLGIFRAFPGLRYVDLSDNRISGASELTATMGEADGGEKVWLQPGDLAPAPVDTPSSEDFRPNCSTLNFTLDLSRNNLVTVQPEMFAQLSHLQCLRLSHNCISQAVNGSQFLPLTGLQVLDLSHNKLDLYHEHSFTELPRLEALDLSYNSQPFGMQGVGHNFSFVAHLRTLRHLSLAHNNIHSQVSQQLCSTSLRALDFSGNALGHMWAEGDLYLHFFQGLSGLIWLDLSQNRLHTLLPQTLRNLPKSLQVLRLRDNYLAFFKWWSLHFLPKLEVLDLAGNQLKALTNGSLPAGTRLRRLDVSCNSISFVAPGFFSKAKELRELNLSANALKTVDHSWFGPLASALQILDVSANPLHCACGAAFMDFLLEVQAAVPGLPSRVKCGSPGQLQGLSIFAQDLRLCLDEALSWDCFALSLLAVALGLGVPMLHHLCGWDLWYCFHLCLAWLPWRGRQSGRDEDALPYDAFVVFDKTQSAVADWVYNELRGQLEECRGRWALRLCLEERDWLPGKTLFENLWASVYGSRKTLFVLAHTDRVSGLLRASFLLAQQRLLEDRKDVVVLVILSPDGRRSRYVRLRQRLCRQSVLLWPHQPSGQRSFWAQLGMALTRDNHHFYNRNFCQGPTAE
Method in brief: as §1

Compound	IC50 (human TLR8)	IC50 (human TLR7)	IC50 (human TLR9)
COc1cc(-c2[nH]c3sc(C(=O)NCCN(C)C)nc3c2C(C)C)cn2ncnc12 [Example 388, N-(2-(dimethylamino)ethyl)-6-isopropyl-5-(8-methoxy-[1,2,4]triazolo[1,5-a]pyridin-6-yl)-4H-pyrrolo[3,2-d]thiazole-2-carboxamide]	37.4 nM	22.4 nM	16.1 µM
COc1cc(-c2[nH]c3sc(C(=O)NCC(F)F)nc3c2C(C)C)cn2ncnc12 [Example 389, N-(2,2-difluoroethyl)-6-isopropyl-5-(8-methoxy-[1,2,4]triazolo[1,5-a]pyridin-6-yl)-4H-pyrrolo[3,2-d]thiazole-2-carboxamide]	168 nM	50.3 nM	37.1 µM
Cc1cc(-c2[nH]c3sc(C(=O)N4CCC(N(C)C)CC4)nc3c2C(C)C)cn2ncnc12 [Example 395, (4-(dimethylamino)piperidin-1-yl)(6-isopropyl-5-(8-methyl-[1,2,4]triazolo[1,5-a]pyridin-6-yl)-4H-pyrrolo[3,2-d]thiazol-2-yl)methanone]	6.75 nM	7.89 nM	4.5 µM
Cc1cc(-c2[nH]c3sc(C(=O)NCCN(C)C)nc3c2C(C)C)cn2ncnc12 [Example 400, N-(2-(dimethylamino)ethyl)-6-isopropyl-5-(8-methyl-[1,2,4]triazolo[1,5-a]pyridin-6-yl)-4H-pyrrolo[3,2-d]thiazole-2-carboxamide]	15.9 nM	13.5 nM	9.25 µM
Cc1c(-c2[nH]c3sc(CNC4CCN(C(C)C)CC4)nc3c2C(C)C)cn2ncnc2c1C [Example 401, N-((5-(7,8-dimethyl-[1,2,4]triazolo[1,5-a]pyridin-6-yl)-6-isopropyl-4H-pyrrolo[3,2-d]thiazol-2-yl)methyl)-1-isopropylpiperidin-4-amine]	35.7 nM	36.9 nM	13.5 µM
Cc1c(-c2[nH]c3sc(CNCC4(S(C)(=O)=O)CC4)nc3c2C(C)C)cn2ncnc2c1C [Example 405, 1-(5-(7,8-dimethyl-[1,2,4]triazolo[1,5-a]pyridin-6-yl)-6-isopropyl-4H-pyrrolo[3,2-d]thiazol-2-yl)-N-((1-(methylsulfonyl)cyclopropyl)methyl)methanamine]	215 nM	77.5 nM	37.7 µM
Cc1c(-c2[nH]c3sc(CN4CC5(CNC5)C4)nc3c2C(C)C)cn2ncnc2c1C [Example 409, 2-((2,6-diazaspiro[3.3]heptan-2-yl)methyl)-5-(7,8-dimethyl-[1,2,4]triazolo[1,5-a]pyridin-6-yl)-6-isopropyl-4H-pyrrolo[3,2-d]thiazole]	345 nM	48.2 nM	9.8 µM
COc1cc(-c2[nH]c3nc(C4CCNCC4)sc3c2C(C)C)cn2ncnc12 [Example 410, 6-isopropyl-5-(8-methoxy-[1,2, 4]triazolo[1,5-a]pyridin-6-yl)-2-(piperidin-4-yl)-4H-pyrrolo[2,3-d]thiazole]	560 nM	130 nM	6.8 µM
Cc1cc(-c2[nH]c3nc(C4CCNCC4)sc3c2C(C)C)cn2ncnc12 [Example 411, 6-isopropyl-5-(8-methyl-[1,2,4]triazolo[1,5-a]pyridin-6-yl)-2-(piperidin-4-yl)-4H-pyrrolo[2,3-d]thiazole]	200 nM	1.8 nM	3.1 µM
Cc1cc(-c2[nH]c3nc(C4CCN(CC5(C)COC5)CC4)sc3c2C(C)C)cn2ncnc12 [Example 412, 6-isopropyl-5-(8-methyl-[1,2,4]triazolo[1,5-a]pyridin-6-yl)-2-(1-((3-methyloxetan-3-yl)methyl)piperidin-4-yl)-4H-pyrrolo[2,3-d]thiazole]	520 nM	50 nM	5 µM
COc1cc(-c2[nH]c3cc(C4CCNCC4)sc3c2C(C)C)cn2ncnc12 [Example 413, 6-isopropyl-5-(8-methoxy-[1,2,4]triazolo[1,5-a]pyridin-6-yl)-2-(piperidin-4-yl)-4H-thieno[3,2-b]pyrrole]	9.3 nM	5.3 nM	3.1 µM
